Reference: ChEMBL document CHEMBL4330066, “Carbohydrate-naphthalene diimide conjugates as potential antiparasitic drugs: Synthesis, evaluation and structure-activity studies” (Eur J Med Chem, 2019)
The source made the active and inactive calls. No cut-off for these calls is given here.

Legend:
[1] = Drug localization in kinetoplast of Trypanosoma brucei at 5 x 10^-6 M after 4 hrs by DAPI staining-based fluorescence confocal microscopy method; format: ADME, subcellular; conditions: 5 µM
[2] = system: Quadruplex DNA; experiment: Stabilization of 22AG telomeric G-quadruplex DNA (unknown origin) assessed as reduction in emission at 8 uM by fluorescence absorption emisssion spectroscopy method; format: nucleic-acid assay; parameters: scale not given: the % may be the effect or the level left
[3] = Selectivity index, ratio of IC50 for human MRC5 cells to IC50 for Trypanosoma brucei Lister 427, antigenic type MiTat 1.2, clone 221a; format: toxicity; conditions: MRC5 cells versus Trypanosoma brucei Lister 427, read-out: Ratio IC50
[4] = system: MRC5; experiment: Cytotoxicity against human MRC5 cells assessed as reduction in cell viability after 48 hrs by MTT assay; format: cell-based; conditions: MRC5, 48 h
[5] = system: Trypanosoma brucei; experiment: Stabilization of 5'-FAM /3'-Tamra labelled Trypanosoma brucei F21T G-quadruplex DNA in presence of 1 x 10^-5 M dsDNA competitior by FRET melting assay
[6] = system: Trypanosoma brucei; experiment: Stabilization of 5'-FAM /3'-Tamra labelled Trypanosoma brucei F21T G-quadruplex DNA in presence of 3 x […] M dsDNA competitior by FRET melting assay
[7] = system: Trypanosoma brucei; experiment: Binding affinity to Trypanosoma brucei EBR1 G-quadruplex DNA assessed as association constant by fluorescence titration assay
[8] = Drug localization in nucleus of Trypanosoma brucei at 5 x 10^-6 M after 4 hrs by DAPI staining-based fluorescence confocal microscopy method; format: ADME, subcellular; conditions: 5 µM
[9] = Cytotoxicity against human THP1 cells; format: cell-based; conditions: THP-1 cells, read-out: TC50 (the source's name)
[10] = system: Trypanosoma brucei; experiment: Stabilization of 5'-FAM /3'-Tamra labelled Trypanosoma brucei F21T G-quadruplex DNA at 2 x 10^-6 M by FRET melting assay
[11] = system: Trypanosoma brucei; experiment: Stabilization of 5'-FAM /3'-Tamra labelled Trypanosoma brucei EBR1-FT G-quadruplex DNA at 2 x 10^-6 M by FRET melting assay
[12] = system: Erythrocyte; experiment: Hemolytic activity in mouse RBC after 1 hr; format: ADME, cell-based
[13] = system: Trypanosoma brucei; experiment: Stabilization of 5'-FAM /3'-Tamra labelled Trypanosoma brucei EBR1-FT G-quadruplex DNA in presence of 1 x 10^-5 M dsDNA competitior by FRET melting assay relative to control
[14] = system: Quadruplex DNA; experiment: Binding affinity to 22AG telomeric G-quadruplex DNA (unknown origin) assessed as association constant by fluorescence titration assay; format: nucleic-acid assay
[15] = system: Leishmania major; experiment: Leishmaniacidal activity against Leishmania major MHOM/IL/80/Friedlin promastigotes after 72 hrs by MTT assay; format: functional, organism-based
[16] = Drug uptake in Trypanosoma brucei assessed as reduction in intracellular fluorescence at 5 x 10^-6 M at 4 to 37 degreeC by flow cytometric analysis; format: ADME, cell-based; conditions: 5 µM, TDE = time-dependent effect
[17] = system: Trypanosoma brucei; experiment: Trypanocidal activity against Trypanosoma brucei Lister 427, antigenic type MiTat 1.2, clone 221a after 72 hrs by alamarBlue assay; format: functional, organism-based; conditions: Lister 427, 72 h
[18] = system: Quadruplex DNA; experiment: Stabilization of 22AG telomeric G-quadruplex DNA (unknown origin) assessed as red shift at 8 uM by fluorescence absorption emisssion spectroscopy method; format: nucleic-acid assay
[19] = system: Leishmania major; experiment: Leishmaniacidal activity against Leishmania major MHOM/IL/80/Friedlin amastigotes infected in human THP1 cells after 72 hrs by luciferase luminescence assay; format: functional, organism-based; conditions: THP-1, 72 h
[20] = Selectivity index, ratio of TC50 for human THP1 cells to IC50 for Leishmania major MHOM/IL/80/Friedlin amastigotes; format: toxicity; conditions: THP1 cells versus Leishmania major amastigotes, read-out: Selectivity Index
[21] = Drug uptake in Trypanosoma brucei assessed as reduction in intracellular fluorescence at 5 x 10^-6 M at 4 degreeC incubated for 90 mins by flow cytometric analysis relative to drug uptake at 37 degC; format: ADME, cell-based; conditions: 1.5 h, 5 µM
[22] = Drug uptake in Trypanosoma brucei at 5 x 10^-6 M at 37 degC incubated for 90 mins by flow cytometric analysis; format: ADME; conditions: 1.5 h, 5 µM
[23] = system: Trypanosoma brucei; experiment: Stabilization of Trypanosoma brucei EBR1 G-quadruplex DNA up to 30 x 10^-6 M by CD titration assay
[24] = system: Quadruplex DNA; experiment: Stabilization of 22AG telomeric G-quadruplex DNA (unknown origin) assessed as reduction in emission at 8 uM by fluorescence absorption emisssion spectroscopy method relative to control; format: nucleic-acid assay; parameters: scale not given: the % may be the effect or the level left
[25] = system: Trypanosoma brucei; experiment: Stabilization of 5'-FAM /3'-Tamra labelled Trypanosoma brucei F21T G-quadruplex DNA assessed as change in melting temperature at 5 x 10^-7 M by FRET melting assay
[26] = system: Trypanosoma brucei; experiment: Stabilization of 5'-FAM /3'-Tamra labelled Trypanosoma brucei EBR1-FT G-quadruplex DNA assessed as change in melting temperature at 0.5 x 10^-6 M by FRET melting assay
[27] = system: Trypanosoma brucei; experiment: Stabilization of 5'-FAM /3'-Tamra labelled Trypanosoma brucei EBR1-FT G-quadruplex DNA assessed as impeding of completing melting of DNA at 2 x 10^-6 M by FRET melting assay
[28] = system: Trypanosoma brucei; experiment: Stabilization of 5'-FAM /3'-Tamra labelled Trypanosoma brucei EBR1-FT G-quadruplex DNA assessed as change in melting temperature at 5 x 10^-7 M by FRET melting assay

In the case of `CN(C)CCCN1C(=O)c2ccc3c4c(c(NCCCn5cc(CCO[C@@H]6O[C@H](CO)[C@@H](O)[C@H](O)[C@H]6O)nn5)cc(c24)C1=O)C(=O)N(CCCN(C)C)C3=O`, the Drug uptake [1] is reported as “Active”, the Activity [2] is reported as 10% and the selectivity ratio [3] is reported as 7.5. The IC50 [4] was 450 nM, the Activity [5] was “Active” and the Activity [6] was “inactive”. The Ka [7] was 1.2 ×10⁶ /M, the Drug uptake [8] was “Active” and the CC50 [9] was 2180 nM. The Activity [10] was “Active”, the Activity [11] was “Active” and the Activity [12] was “Non-Toxic”. For the same compound, the Activity [13] was “Active”, the Ka [14] was 9.2 ×10⁵ /M and the IC50 [15] was 70 nM. For the same compound, the Drug uptake [16] was “Tde”, the IC50 [17] was 60 nM and the Activity [18] was 10 nm. For the same compound, the IC50 [19] was 720 nM, the selectivity ratio [20] was 3 and the Drug uptake [21] was 36%. The Drug uptake [22] was “Active” and the Activity [23] was “Active”.

For `CN(C)CCCc1cc2c3c(c(NCCCn4cc(CCO[C@@H]5O[C@H](CO)[C@@H](O)[C@H](O)[C@H]5O)nn4)cc4c3c1C(=O)N(CCCN(C)C)C4=O)C(=O)N(CCCN(C)C)C2=O`, the Drug uptake [1] was “Active”, the Activity [24] was 40% and the selectivity ratio [3] was 30.2. The IC50 [4] was 7250 nM, the Activity [5] was “Active” and the Activity [6] was “inactive”. The ΔTm [25] was 22.1 °C, the Ka [7] was 1 ×10⁷ /M and the Drug uptake [8] was “Active”. For the same compound, the ΔTm [26] was 24 °C, the Activity [10] was “inactive” and the Activity [12] was “Non-Toxic”. The Activity [13] was “inactive”, the Ka [14] was 4.4 ×10⁶ /M and the IC50 [15] was 9770 nM. The IC50 [17] was 240 nM, the Activity [27] was “Active” and the ΔTm [28] was 11.5 °C. For the same compound, the Activity [23] was “Active”.

With `CN(C)CCCN1C(=O)c2ccc3c4c(c(NCCCn5cc(COCCOCCOCCO[C@@H]6O[C@H](CO)[C@@H](O)[C@H](O)[C@H]6O)nn5)cc(c24)C1=O)C(=O)N(CCCN(C)C)C3=O` the Drug uptake [1] was “Active”, the selectivity ratio [3] was 1.6 and the IC50 [4] was 730 nM. For the same compound, the Activity [5] was “Active”, the Activity [6] was “inactive” and the Ka [7] was 6.9 ×10⁵ /M. The Drug uptake [8] was “Active”, the CC50 [9] was 1860 nM and the Activity [10] was “Active”. The Activity [11] was “Active”, the Activity [13] was “Active” and the Ka [14] was 4.8 ×10⁵ /M. For the same compound, the IC50 [15] was 480 nM, the IC50 [17] was 440 nM and the Activity [18] was “Active”. For the same compound, the IC50 [19] was 480 nM, the selectivity ratio [20] was 3.9 and the Activity [23] was “Active”.

For `CN(C)CCCN1C(=O)c2ccc3c4c(c(NCCCn5cc(COCCOCCOCCO[C@@H]6O[C@H](CO)[C@@H](O[C@@H]7O[C@H](CO)[C@H](O)[C@H](O)[C@H]7O)[C@H](O)[C@H]6O)nn5)cc(c24)C1=O)C(=O)N(CCCN(C)C)C3=O`, the Drug uptake [1] was “Active”, the selectivity ratio [3] was 6 and the IC50 [4] was 240 nM. For the same compound, the Activity [5] was “Active”, the Activity [6] was “inactive” and the Ka [7] was 1.1 ×10⁶ /M. For the same compound, the Drug uptake [8] was “Active”, the CC50 [9] was 5710 nM and the Activity [10] was “Active”. The Activity [11] was “Active”, the Activity [13] was “Active” and the Ka [14] was 8.4 ×10⁵ /M. The IC50 [15] was 170 nM, the IC50 [17] was 40 nM and the Activity [18] was “Active”. The IC50 [19] was 530 nM, the selectivity ratio [20] was 10.8 and the Activity [23] was “Active”.
